What was measured:
CYP2C19 = CYP2C19 (Homo sapiens, UniProt P33261); experiment: CYP enzyme inhibition in pooled human liver microsomes (S-mephenytoin substrate); details: microsomes, 10 µM
Experimental: Cytochrome 450 (CYP) enzyme inhibition was evaluated using pooled human liver microsomes (Corning, #452117). […] Substrates and corresponding metabolites for each CYP isoform were as follows: phenacetin and acetaminophen for CYP1A2 (Sigma Aldrich, #77440 and A7085, respectively), diclofenac and 4'-hydroxydiclofenac for CYP2C9 (Sigma Aldrich, D6899; TRC, H825225), S-mephenytoin and 4'-hydroxymephenytoin for CYP2C19 (Sigma Aldrich, UC175; Santacruz, sc210197), dextromethorphan and dextrorphan for CYP2D6 (Sigma Aldrich, #81091 and UC205), and midazolam and 1'-hydroxymidazolam for CYP3A4 (KFDA; Sigma Aldrich, UC430).
Samples were preincubated at 37 °C for 5 min, and the reaction was initiated by the addition of the NADPH regeneration system, followed by incubation at 37 °C for 15 min. The reaction was terminated by adding acetonitrile containing the internal standard, and centrifuged at 15,000 rpm for 5 min at 4 °C. The supernatant was analyzed by LC–MS/MS using a Nexera XR system (Shimadzu, Japan) coupled with a TSQ Vantage mass spectrometer (Thermo, USA). […] Metabolites were quantified in multiple reaction monitoring (MRM) mode with Xcalibur software (version 4.4).
All experiments were performed in duplicate with variability ≤ 15%. The percent activity of each CYP enzyme was calculated based on metabolite formation relative to the no-inhibitor control.

plasma protein [1] = experiment: Plasma protein binding, Rapid Equilibrium Dialysis (RED); assay type: in vitro ADME, rat; details: 10 μM, 37 °C, 4 h
Experimental: (§1) The plasma protein binding of LJ-4378 was evaluated using the Rapid Equilibrium Dialysis (RED) method with 100% plasma from human (Biochemed, BC22089NCP), rat (Innovative, IRT-N), and mouse (Biochemed, 029-APSC-MP), all treated with sodium citrate as an anticoagulant. The RED device (ThermoFisher Scientific, #89809) and reusable base plate (ThermoFisher Scientific, #89811) were used with an 8 K MWCO membrane. Test compounds were added to plasma at a final concentration of 10 μM and dialyzed against phosphate-buffered saline (PBS, pH 7.4; Hyclone, #SH30256.01) at 37 °C for 4 h. After incubation, equal volumes of plasma and PBS samples were mixed with blank PBS and blank plasma, respectively, followed by the addition of acetonitrile containing chlorpropamide (TRC, C424800) as the internal standard. […] All measurements were performed in duplicate with a deviation of less than 15% between replicates. The free fraction (% Free) was calculated as (concentration in buffer chamber/concentration in plasma chamber) × 100, and the bound fraction (% Bound) was obtained by subtracting % Free from 100. In cases where measurements were unstable, deviations greater than 15% were allowed.

plasma protein [2] = experiment: as above; assay type: in vitro ADME, mouse; details: 10 μM, 37 °C, 4 h
Experimental: as §1

Plasma stability assay = assay type: in vitro ADME, rat; details: 37 °C, 30 min
Experimental: The plasma stability of LJ-4378 was evaluated using 100% plasma obtained from human (Biochemed, BC22089NCP, sodium citrate), rat (Innovative, IRT-N, sodium citrate), and mouse (Biochemed, 029-APSC-MP, sodium citrate). 10 Μm of LJ-4378 was added to the plasma, and samples were incubated at 37 °C for 0, 30, and 120 min. At each time point, an aliquot of the plasma was removed and mixed with acetonitrile containing the internal standard, chlorpropamide (TRC, C424800). […] The supernatant was injected into the LC–MS/MS system for quantification of the remaining compound. Analysis was performed using a Nexera XR system (Shimadzu, Japan) with a TSQ Vantage mass spectrometer (Thermo, USA). […] Data acquisition was conducted in MRM mode using Xcalibur software (version 4.4). All experiments were performed in duplicate with a deviation within 15%, and the percentage of compound remaining (% Remaining) at each time point was calculated relative to the non-incubated control sample. For quality control, procaine and enalapril (each at 10 μM) were used as reference compounds and were confirmed to fall within acceptable ranges.

CYP2C19, sequence (P33261 whole entry, canonical isoform): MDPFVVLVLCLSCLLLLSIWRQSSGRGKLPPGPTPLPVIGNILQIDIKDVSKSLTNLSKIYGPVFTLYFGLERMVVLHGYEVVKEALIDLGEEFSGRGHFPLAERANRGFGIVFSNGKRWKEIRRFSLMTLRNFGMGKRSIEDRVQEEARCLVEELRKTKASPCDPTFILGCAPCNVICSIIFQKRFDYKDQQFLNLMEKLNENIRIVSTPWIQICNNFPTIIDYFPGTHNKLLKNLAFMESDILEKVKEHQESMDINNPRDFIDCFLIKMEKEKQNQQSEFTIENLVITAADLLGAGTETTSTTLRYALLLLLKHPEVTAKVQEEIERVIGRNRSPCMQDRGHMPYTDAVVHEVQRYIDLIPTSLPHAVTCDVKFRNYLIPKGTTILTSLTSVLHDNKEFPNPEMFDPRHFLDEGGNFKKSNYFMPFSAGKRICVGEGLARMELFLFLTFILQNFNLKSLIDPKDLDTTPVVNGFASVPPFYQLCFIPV

CCCCC#Cc1nc(N)c2ncn([C@@H]3SC[C@@H](O)[C@H]3O)c2n1 [LJ-4378]
% of control activity CYP2C19 (CYP2C19): 85.3%
Plasma free fraction (% Free), Rat (plasma protein [1]): 29.7%
Plasma free fraction (% Free), Mouse (plasma protein [2]): 12.7%
% Remaining compound, Rat plasma 30 min (Plasma stability assay): > 100%

Source: PMC12680861, “Comparative analysis of LJ-4378 and tirzepatide in mouse models of obesity and weight regain” (Archives of Pharmacal Research, 2025)
